Earlier results in patent US10537636B2, “Treatment of cancer with therapeutic monoclonal antibody specific for a tumor associated antigen and an immune adjuvant” (Oncoquest, Inc., priority 2017, dated 2020).

System: advanced ovarian cancer
Conditions: mono-immunotherapy following front-line chemotherapy

Substance: oregovomab
- clinical outcome: failed to improves clinical outcome
